Results taken from patent US10343985B2, “Cryopyrin inhibitors for preventing and treating inflammation” (VIRGINIA COMMONWEALTH UNIVERSITY, priority 2013, dated 2019).
Like-named read-outs stand apart in the source and are kept apart here.

Legend:
healthy mice = test: Toxic effects and glucose levels in healthy control mice
NLRP3 inflammasome [1] = molecular target: NLRP3 inflammasome (Homo sapiens, UniProt Q96P20); settings: literature reports, cited from earlier work
insulin = settings: Lamkanfi et al. 2009; cited from earlier work
NLRP3 inflammasome [2] = molecular target: T1, NLRP3 inflammasome (Mus musculus, UniProt Q8R4B8); test: Acute myocardial infarction, single i.p. dose at reperfusion, infarct size (TTC); assay type: in vivo; parameters: from tissue; host or cells: live mice: heart (infarction and doxorubicin models) and peritoneal cavity (zymosan A); settings: experiment with G1; 100 mg/kg i.p. at reperfusion; 24 hours; vs vehicle
T1 sequence (Q8R4B8 whole entry, the tested form may be a part): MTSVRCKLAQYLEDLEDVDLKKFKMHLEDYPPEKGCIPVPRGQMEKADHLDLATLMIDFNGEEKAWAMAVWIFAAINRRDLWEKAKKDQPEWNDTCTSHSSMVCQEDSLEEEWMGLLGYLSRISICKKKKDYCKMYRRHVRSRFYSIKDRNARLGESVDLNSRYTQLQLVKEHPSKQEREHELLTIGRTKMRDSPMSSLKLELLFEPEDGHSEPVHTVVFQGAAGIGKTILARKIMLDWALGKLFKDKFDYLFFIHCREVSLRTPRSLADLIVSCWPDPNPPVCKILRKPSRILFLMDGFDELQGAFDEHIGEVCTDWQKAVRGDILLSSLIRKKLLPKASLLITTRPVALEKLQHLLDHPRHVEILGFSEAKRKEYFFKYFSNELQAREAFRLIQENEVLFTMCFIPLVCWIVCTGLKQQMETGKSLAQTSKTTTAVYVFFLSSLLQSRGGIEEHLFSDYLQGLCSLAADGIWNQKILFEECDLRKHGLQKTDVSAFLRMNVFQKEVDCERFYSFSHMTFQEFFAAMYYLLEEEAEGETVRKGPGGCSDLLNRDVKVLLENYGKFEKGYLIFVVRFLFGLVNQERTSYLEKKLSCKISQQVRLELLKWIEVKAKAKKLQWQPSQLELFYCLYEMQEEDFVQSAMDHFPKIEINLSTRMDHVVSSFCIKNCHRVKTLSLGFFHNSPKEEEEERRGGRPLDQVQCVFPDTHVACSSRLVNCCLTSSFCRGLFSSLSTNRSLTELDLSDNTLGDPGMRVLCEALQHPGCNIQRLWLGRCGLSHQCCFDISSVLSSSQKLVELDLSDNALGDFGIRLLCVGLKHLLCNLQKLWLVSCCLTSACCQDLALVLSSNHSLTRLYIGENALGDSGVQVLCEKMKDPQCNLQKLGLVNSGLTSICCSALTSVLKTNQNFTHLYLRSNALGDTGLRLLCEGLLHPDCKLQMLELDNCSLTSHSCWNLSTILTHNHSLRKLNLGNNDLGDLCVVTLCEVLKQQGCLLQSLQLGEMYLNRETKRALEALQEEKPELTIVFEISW
Description: Experimental AMI was induced in mice by transient myocardial ischemia for 30 min followed by 24 hours of reperfusion. […] The heart were explanted at 24 hours and processed for the measurement of infarct size using triphenyl tetrazolium chloride (TTC staining). The areas of infarcted tissue, the risk zone, and the whole LV areas are determined by computer morphometry using Image Pro® Plus 6.0 software (Media Cybernetics, Silver Spring, Md.).
As described above, experimental AMI was induced by transient myocardial ischemia for 30 min followed by 24 hours of reperfusion.

NLRP3 inflammasome [3] = molecular target: T1, NLRP3 inflammasome; test: Caspase-1 enzymatic activity in HL-1 cardiomyocytes; assay type: cell-based, murine; parameters: immortalized adult murine cardiomyocytes (HL-1) cells were used; endogenous in cells; host or cells: HL-1 murine cardiomyocytes; settings: LPS/ATP, compound 400 μM
Description: In separate experiments, immortalized adult murine cardiomyocytes (HL-1) cells were used. […] Formation of the NLRP3 inflammasome in HL-1 cells was determined and quantified by ASC aggregation (immunohistochemistry), caspase-1 activity (enzymatic activity) and cell death (trypan blue exclusion method), as previously described. […] As readout for the NLRP3 inflammasome activation, caspase-1 enzymatic activity and cell death were evaluated. Briefly, HL-1 cells (2×10^6 cells) were plated in 90-mm dishes and NLRP3 inflammasome formation was induced as described above. After treatments, to measure caspase-1 activity, the cells were washed, harvested, and frozen. The pellet was resuspended using RIPA buffer (Sigma-Aldrich) containing a mixture of protease inhibitors (Sigma-Aldrich) and centrifuged at 16,200×g for 20 min. The supernatants were collected and the protein contents were quantified using the Bradford assay. The caspase-1 activity was determined by measuring the fluorescence produced by the cleavage of a fluorogenic substrate. The fluorescence was reported as arbitrary fluorescence units produced by 1 μg of sample per min (fluorescence/μg/min).

NLRP3 inflammasome [4] = molecular target: T1, NLRP3 inflammasome; test: Cell death in HL-1 cardiomyocytes (trypan blue exclusion); assay type: cell-based, murine; parameters: immortalized adult murine cardiomyocytes (HL-1) cells were used; endogenous in cells; host or cells: HL-1 murine cardiomyocytes

Chain of NLRP3 inflammasome (Homo sapiens, UniProt Q96P20) (Q96P20 whole entry): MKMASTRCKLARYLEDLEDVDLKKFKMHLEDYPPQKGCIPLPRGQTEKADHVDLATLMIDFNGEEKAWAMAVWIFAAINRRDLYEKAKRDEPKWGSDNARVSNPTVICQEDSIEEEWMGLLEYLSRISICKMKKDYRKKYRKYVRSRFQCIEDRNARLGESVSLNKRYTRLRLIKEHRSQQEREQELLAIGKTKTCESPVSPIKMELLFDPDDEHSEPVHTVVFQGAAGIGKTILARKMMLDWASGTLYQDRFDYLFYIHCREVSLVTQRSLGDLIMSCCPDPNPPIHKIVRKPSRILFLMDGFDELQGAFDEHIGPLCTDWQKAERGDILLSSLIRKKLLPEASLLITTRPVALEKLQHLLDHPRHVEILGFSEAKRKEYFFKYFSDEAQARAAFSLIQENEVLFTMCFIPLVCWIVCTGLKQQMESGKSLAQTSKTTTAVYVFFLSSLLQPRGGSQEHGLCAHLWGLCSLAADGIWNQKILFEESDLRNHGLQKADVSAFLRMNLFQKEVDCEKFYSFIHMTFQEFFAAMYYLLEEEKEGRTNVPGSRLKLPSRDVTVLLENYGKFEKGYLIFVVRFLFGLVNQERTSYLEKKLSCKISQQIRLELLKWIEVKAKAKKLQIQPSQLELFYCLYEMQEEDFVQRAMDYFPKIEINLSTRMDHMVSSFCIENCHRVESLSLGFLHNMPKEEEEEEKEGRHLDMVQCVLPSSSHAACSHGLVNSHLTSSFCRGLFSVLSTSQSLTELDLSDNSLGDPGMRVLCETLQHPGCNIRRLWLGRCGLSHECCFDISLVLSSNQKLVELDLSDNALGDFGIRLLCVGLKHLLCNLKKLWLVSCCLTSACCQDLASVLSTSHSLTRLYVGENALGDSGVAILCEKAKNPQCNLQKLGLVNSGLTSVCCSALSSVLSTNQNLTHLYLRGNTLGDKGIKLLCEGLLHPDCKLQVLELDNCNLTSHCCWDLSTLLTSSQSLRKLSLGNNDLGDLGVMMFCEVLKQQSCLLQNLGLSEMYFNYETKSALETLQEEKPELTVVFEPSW

For `COc1ccc(Cl)cc1C(=O)NCCc1ccc(S(=O)(=O)NC(=O)NC2CCCCC2)cc1` [glyburide], the “lethal within 3 days, share of mice” value (healthy mice; 100 mg/kg every 6 hours for 3 doses) was 50%, the “glucose levels 2 hours after a single dose” value (healthy mice; 16673-34-0 100 mg/kg, (equimolar)) was “significant reduction” and the “lethal in 3 days, share of mice” value (healthy mice; daily doses of 500 mg/kg) was 100%. For the same compound, the “mortality in healthy mice” value (healthy mice; every 6 hours for 24 hours, 16673-34-0 100 mg/kg) was 50% and the plasma glucose levels (healthy mice; healthy mice, single and repeated injections, glyburide effect as early as 2 hours) was “significant reduction”.
In the case of `COc1ccc(Cl)cc1C(=O)NCCc1ccc(S(=O)(=O)Cl)cc1` [Compound G1, 4-(2-[(5-chloro-2-methoxyphenyl)formamido]ethyl)benzene-1-sulfonyl chloride], the “inhibition of cryopyrin / NLRP3 inflammasome in vitro” value (NLRP3 inflammasome [1]) is given as “inhibited”, the “inhibition of cryopyrin / NLRP3 inflammasome in vitro” value (NLRP3 inflammasome [1]; listed as compound 1) is given as “retain some of the anti-inflammatory activity of glyburide” and the effect on insulin (insulin) is given as “no effect”. The “infarct size (% area at risk)” value (NLRP3 inflammasome [2]) was “no effect”.
For `COc1ccc(Cl)cc1C(=O)NCCc1ccccc1` [Compound 6 in FIG. 3, 5-chloro-2-methoxy-N-(2-phenylethyl)-benzamide], the caspase-1 activity (NLRP3 inflammasome [3]) was “failed to inhibit”, the caspase-1 activity (NLRP3 inflammasome [3]; listed as intermediate compound) was “no inhibitory effects” and the cell death (NLRP3 inflammasome [4]) was “failed”. For the same compound, the cell death (NLRP3 inflammasome [4]; HL-1, LPS/ATP, compound 400 μM) was “no inhibitory effects”.
